Test: xn = mol fraction of the nth substance listed
Conditions: Gas; for mass density: Gas pipette; for viscosity: Oscillating disk viscometry

COC [dimethyl ether] + N#N
Conditions | mass density [kg/m3] | viscosity [mPa·s]
298.15 K, 101 kPa, x1 = 0.256 | 1.178 | 0.01483
298.15 K, 101 kPa, x1 = 0.449 | 1.433 | 0.013
298.15 K, 101 kPa, x1 = 0.752 | 1.783 | 0.01063
298.15 K, 101 kPa, x1 = 1 | 1.91 | 0.00922
298.15 K, 262 kPa, x1 = 0.752 | 4.839 | 0.0106
298.15 K, 264 kPa, x1 = 0.449 | 4.075 | 0.013
298.15 K, 296 kPa, x1 = 1 | 6.081 | 0.00918
298.15 K, 305 kPa, x1 = 0.256 | 4.298 | 0.01488
298.15 K, 475 kPa, x1 = 1 | 10.06 | 0.0091
298.15 K, 614 kPa, x1 = 0.752 | 11.78 | 0.0106
298.15 K, 640 kPa, x1 = 0.449 | 9.965 | 0.01303
298.15 K, 683 kPa, x1 = 0.256 | 9.296 | 0.01494
323.15 K, 101 kPa, x1 = 0.228 | 1.08 | 0.01629
323.15 K, 101 kPa, x1 = 0.449 | 1.144 | 0.01402
323.15 K, 101 kPa, x1 = 0.698 | 1.303 | 0.012
323.15 K, 101 kPa, x1 = 1 | 1.652 | 0.00997
323.15 K, 270 kPa, x1 = 0.698 | 4.353 | 0.01201
323.15 K, 295 kPa, x1 = 1 | 5.561 | 0.00996
323.15 K, 321 kPa, x1 = 0.449 | 4.449 | 0.01406
323.15 K, 354 kPa, x1 = 0.228 | 4.544 | 0.01632
323.15 K, 485 kPa, x1 = 0.698 | 7.499 | 0.01201
323.15 K, 486 kPa, x1 = 0.449 | 6.864 | 0.01408
323.15 K, 490 kPa, x1 = 1 | 9.31 | 0.00993
323.15 K, 553 kPa, x1 = 0.228 | 6.768 | 0.01636
323.15 K, 695 kPa, x1 = 0.698 | 11.57 | 0.01206
323.15 K, 714 kPa, x1 = 0.449 | 10.2 | 0.01408
323.15 K, 736 kPa, x1 = 1 | 14.71 | 0.00995
323.15 K, 910 kPa, x1 = 0.228 | 11.15 | 0.01636
323.15 K, 946 kPa, x1 = 0.698 | 15.73 | 0.01208
323.15 K, 976 kPa, x1 = 1 | 22.53 | 0.00994
323.15 K, 990 kPa, x1 = 0.449 | 13.89 | 0.01413
348.15 K, 101 kPa, x1 = 0.313 | 1.11 | 0.01638
348.15 K, 101 kPa, x1 = 0.491 | 1.237 | 0.01463
348.15 K, 101 kPa, x1 = 0.661 | 1.332 | 0.01319
348.15 K, 101 kPa, x1 = 1 | 1.332 | 0.01081
348.15 K, 294 kPa, x1 = 0.313 | 3.552 | 0.01639
